Results as given in ChEMBL document CHEMBL1201862, “PubChem BioAssay data set” (2004).
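Protocol summary: plate cells (96-well), add compound at 5 concentrations, incubate 48 h, interpolate endpoints linearly. The concentration for 50% growth inhibition is given as GI50.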 Calls of active or inactive are those of the source. Rule as the data show it: active = GI50 up to about 1.1 µM and inactive = higher.

Legend:
Assay in all cases: NCI-60 cell line screen, 48 h
SK-MEL-28 = test system: SK-MEL-28
CCRF-CEM = test system: CCRF-CEM
U-251 = test system: U-251
MOLT-4 = test system: MOLT-4
NCI-H226 = test system: NCI-H226
HCT-116 = test system: HCT-116
SF-539 = test system: SF-539
DLD-1 = test system: DLD-1
SN12C = test system: SN12C
SNB-19 = test system: SNB-19
NCI-H460 = test system: NCI-H460
SNB-75 = test system: SNB-75
HOP-62 = test system: HOP-62
K562 = test system: K562
SNB-78 = test system: SNB-78
DMS-273 = test system: DMS-273
KM-20L2 = test system: KM-20L2
HL-60 = test system: HL-60
HCC 2998 = test system: HCC 2998
786-0 = test system: 786-0
OVCAR-4 = test system: OVCAR-4
M14 = test system: M14
LOX IMVI = test system: LOX IMVI
NCI-H522 = test system: NCI-H522
RPMI-8226 = test system: RPMI-8226
RXF 393 = test system: RXF 393
NCI-H23 = test system: NCI-H23
LXFL 529 = test system: LXFL 529
COLO 205 = test system: COLO 205
OVCAR-3 = test system: OVCAR-3
A549 = test system: A549
DU-145 = test system: DU-145
OVCAR-5 = test system: OVCAR-5
Hs-578T = test system: Hs-578T
A498 = test system: A498
MCF7 = test system: MCF7
OVCAR-8 = test system: OVCAR-8
HT-29 = test system: HT-29
HCT-15 = test system: HCT-15
PC-3 = test system: PC-3
SF-268 = test system: SF-268
UO-31 = test system: UO-31
TK-10 = test system: TK-10
SW-620 = test system: SW-620
BT-549 = test system: BT-549
SK-MEL-5 = test system: SK-MEL-5
CAKI-1 = test system: CAKI-1
MDA-N = test system: MDA-N
HOP-92 = test system: HOP-92
T47D = test system: T47D
SK-MEL-2 = test system: SK-MEL-2
ACHN = test system: ACHN
SF-295 = test system: SF-295
MDA-MB-435 = test system: MDA-MB-435
SR = test system: SR
EKVX = test system: EKVX
MDA-MB-231 = test system: MDA-MB-231
IGROV-1 = test system: IGROV-1
KM12 = test system: KM12
Malme-3M = test system: Malme-3M
NCI/ADR-RES = test system: NCI/ADR-RES
UACC-257 = test system: UACC-257
SK-OV-3 = test system: SK-OV-3
UACC-62 = test system: UACC-62

Cc1cnc(-c2ccccc2)o1
GI50 (SK-MEL-28): > 100 µM (inactive)
GI50 (CCRF-CEM): > 100 µM (inactive)
GI50 (U-251): > 100 µM (inactive)
GI50 (MOLT-4): > 100 µM (inactive)
GI50 (NCI-H226): > 100 µM (inactive)
GI50 (HCT-116): > 100 µM (inactive)
GI50 (SF-539): > 100 µM (inactive)
GI50 (DLD-1): > 100 µM (inactive)
GI50 (SN12C): > 10 µM (inactive)
GI50 (SNB-19): > 100 µM (inactive)
GI50 (NCI-H460): > 100 µM (inactive)
GI50 (SNB-75): > 100 µM (inactive)
GI50 (HOP-62): > 100 µM (inactive)
GI50 (K562): > 100 µM (inactive)
GI50 (SNB-78): > 100 µM (inactive)
GI50 (DMS-273): 52.6 µM (inactive)
GI50 (KM-20L2): > 100 µM (inactive)
GI50 (HL-60): > 100 µM (inactive)
GI50 (HCC 2998): > 100 µM (inactive)
GI50 (786-0): > 100 µM (inactive)
GI50 (OVCAR-4): > 100 µM (inactive)
GI50 (M14): > 100 µM (inactive)
GI50 (LOX IMVI): > 100 µM (inactive)
GI50 (NCI-H522): > 100 µM (inactive)
GI50 (RPMI-8226): > 100 µM (inactive)
GI50 (RXF 393): > 100 µM (inactive)
GI50 (NCI-H23): > 100 µM (inactive)
GI50 (LXFL 529): > 100 µM (inactive)

Cc1ccc([N+](=O)[O-])c2c(NCCCN(C)C)ccnc12
GI50 (SK-MEL-28): > 100 µM (inactive)
GI50 (COLO 205): 15 µM (inactive)
GI50 (OVCAR-3): 33.1 µM (inactive)
GI50 (A549): > 92 µM (inactive)
GI50 (CCRF-CEM): > 100 µM (inactive)
GI50 (U-251): 87.3 µM (inactive)
GI50 (DU-145): > 100 µM (inactive)
GI50 (OVCAR-5): > 100 µM (inactive)
GI50 (MOLT-4): > 100 µM (inactive)
GI50 (Hs-578T): > 100 µM (inactive)
GI50 (NCI-H226): > 100 µM (inactive)
GI50 (A498): 61.4 µM (inactive)
GI50 (HCT-116): 45.6 µM (inactive)
GI50 (MCF7): 39.4 µM (inactive)
GI50 (OVCAR-8): 98.4 µM (inactive)
GI50 (SF-539): 27.3 µM (inactive)
GI50 (HT-29): 31 µM (inactive)
GI50 (HCT-15): 35 µM
GI50 (SN12C): 44.3 µM (inactive)
GI50 (PC-3): 33.6 µM (inactive)
GI50 (SF-268): > 95.9 µM (inactive)
GI50 (UO-31): > 100 µM (inactive)
GI50 (SNB-19): > 100 µM (inactive)
GI50 (NCI-H460): 23.2 µM (inactive)
GI50 (TK-10): > 100 µM (inactive)
GI50 (SNB-75): 33.7 µM (inactive)
GI50 (SW-620): 30.7 µM (inactive)
GI50 (BT-549): > 100 µM (inactive)
GI50 (SK-MEL-5): 29.6 µM (inactive)
GI50 (CAKI-1): > 89.5 µM (inactive)
GI50 (HOP-62): > 90.4 µM (inactive)
GI50 (K562): 70.8 µM (inactive)
GI50 (SNB-78): 55.7 µM (inactive)
GI50 (MDA-N): 33.5 µM (inactive)
GI50 (HOP-92): 56.9 µM (inactive)
GI50 (KM-20L2): 26.4 µM (inactive)
GI50 (T47D): > 100 µM (inactive)
GI50 (HL-60): 47.1 µM (inactive)
GI50 (HCC 2998): 20.3 µM (inactive)
GI50 (SK-MEL-2): 36.6 µM (inactive)
GI50 (786-0): 44.8 µM (inactive)
GI50 (OVCAR-4): 22.4 µM (inactive)
GI50 (ACHN): 57 µM (inactive)
GI50 (SF-295): > 100 µM (inactive)
GI50 (M14): > 59.2 µM (inactive)
GI50 (LOX IMVI): 44.2 µM (inactive)
GI50 (MDA-MB-435): 21.6 µM (inactive)
GI50 (SR): 66.4 µM (inactive)
GI50 (NCI-H522): 19.6 µM (inactive)
GI50 (RPMI-8226): > 100 µM (inactive)
GI50 (RXF 393): > 100 µM (inactive)
GI50 (NCI-H23): 28.2 µM (inactive)
GI50 (EKVX): > 49 µM (inactive)
GI50 (MDA-MB-231): > 100 µM (inactive)
GI50 (IGROV-1): 30 µM (inactive)
GI50 (KM12): 69.8 µM (inactive)
GI50 (Malme-3M): 17 µM (inactive)
GI50 (NCI/ADR-RES): 66.2 µM (inactive)
GI50 (UACC-257): 39.2 µM (inactive)

C=CCN1C(=O)/C(=C/c2ccc(OC)cc2)N=C1SC/C=C/C
GI50 (SK-MEL-28): 87.7 µM (inactive)
GI50 (COLO 205): 29.2 µM (inactive)
GI50 (OVCAR-3): 74.1 µM (inactive)
GI50 (A549): 18.9 µM (inactive)
GI50 (CCRF-CEM): 26.4 µM (inactive)
GI50 (U-251): 35.1 µM (inactive)
GI50 (DU-145): 80 µM (inactive)
GI50 (OVCAR-5): > 100 µM (inactive)
GI50 (MOLT-4): 20.3 µM (inactive)
GI50 (Hs-578T): 50.1 µM (inactive)
GI50 (NCI-H226): 53.7 µM (inactive)
GI50 (A498): 23.9 µM (inactive)
GI50 (HCT-116): 25.4 µM (inactive)
GI50 (MCF7): 32.1 µM (inactive)
GI50 (OVCAR-8): 31.8 µM (inactive)
GI50 (SF-539): > 100 µM (inactive)
GI50 (HT-29): 33.7 µM (inactive)
GI50 (HCT-15): 24.2 µM
GI50 (SN12C): 19.5 µM (inactive)
GI50 (PC-3): 30.4 µM (inactive)
GI50 (SF-268): 53.8 µM (inactive)
GI50 (UO-31): 32.1 µM (inactive)
GI50 (SNB-19): 34.4 µM (inactive)
GI50 (NCI-H460): 61.9 µM (inactive)
GI50 (TK-10): > 100 µM (inactive)
GI50 (SNB-75): 31.2 µM (inactive)
GI50 (SW-620): 35.4 µM (inactive)
GI50 (BT-549): 39.7 µM (inactive)
GI50 (SK-MEL-5): 18.3 µM (inactive)
GI50 (CAKI-1): 84.5 µM (inactive)
GI50 (HOP-62): > 100 µM (inactive)
GI50 (K562): 42.5 µM (inactive)
GI50 (SK-OV-3): > 100 µM (inactive)
GI50 (MDA-N): 26.7 µM (inactive)
GI50 (HOP-92): 24 µM (inactive)
GI50 (T47D): 12.6 µM (inactive)
GI50 (HL-60): 20 µM (inactive)
GI50 (HCC 2998): 63.2 µM (inactive)
GI50 (SK-MEL-2): 31.5 µM (inactive)
GI50 (786-0): 34.7 µM (inactive)
GI50 (OVCAR-4): 37.7 µM (inactive)
GI50 (ACHN): 56.4 µM (inactive)
GI50 (SF-295): 41.3 µM (inactive)
GI50 (M14): 54.7 µM (inactive)
GI50 (LOX IMVI): 31.6 µM (inactive)
GI50 (MDA-MB-435): 33.3 µM (inactive)
GI50 (SR): 17.3 µM (inactive)
GI50 (NCI-H522): 28.1 µM (inactive)
GI50 (RPMI-8226): 26.2 µM (inactive)
GI50 (RXF 393): 16.6 µM (inactive)
GI50 (NCI-H23): 41.5 µM (inactive)
GI50 (EKVX): 33.5 µM (inactive)
GI50 (MDA-MB-231): 57.8 µM (inactive)
GI50 (IGROV-1): > 100 µM (inactive)
GI50 (KM12): 28.8 µM (inactive)
GI50 (Malme-3M): 34.8 µM (inactive)
GI50 (NCI/ADR-RES): 39 µM (inactive)
GI50 (UACC-62): 42.8 µM (inactive)
GI50 (UACC-257): 36.7 µM (inactive)
